Where two headings read alike, the source gives them in different places.
Experiments:
[1] = tested on: HCV subgenomic stable replicon GT2b; assay: Stable HCV replicon luciferase assay in Huh-7 cells; format: cell-based; conditions: Hepatitis C virus, 0% human plasma, read-out: Mean EC50 ± SD
Source text: (§1) Five of these nine cell lines have been described previously, including those transfected with genotypes 1a H77, 1b Con1, 3a, 4a, and 6a ([28]). […] The genotype 2b and 6e NS3 sequences were each synthetically constructed based on a consensus sequence derived from the alignment of 15 genotype 2b and 4 genotype 6e sequences, respectively. All replicon constructs were bicistronic subgenomic replicons similar to those described by Bartenschlager and coworkers, and the replicon cell lines were generated by introducing these constructs into cells of an Huh-7 human hepatoma-derived cell line ([50]). The inhibitory effect of the PIs on HCV replication in replicon cells was determined in Dulbecco's modified Eagle medium containing 5% fetal bovine serum with or without 40% human plasma (Bioreclamation, Westbury, NY). The EC50s were determined using nonlinear regression curve fitting as described previously ([33]).

[2] = tested on: HCV subgenomic stable replicon GT4a; assay: as above; format: cell-based, Hepatitis C virus; conditions: Hepatitis C virus, Huh-7, 0% human plasma, read-out: Mean EC50 ± SD
Source text: (§2) . Five of these nine cell lines have been described previously, including those transfected with genotypes 1a H77, 1b Con1, 3a, 4a, and 6a ([28]). The other four cell lines were established by transfecting cells with a nonchimeric genotype 2a JFH-1 replicon (GenBank accession number AB047639), two genotype 2a JFH-1 chimeric replicons containing either a genotype 2b NS3 protease domain (N-terminal 251 amino acids) or a sequence encoding full-length NS3 through the first 39 amino acids of NS5B from genotype 5a (strain SA13), and one chimeric replicon with a genotype 1b Con1 backbone containing full-length NS3 and NS4A sequences from genotype 6e. The genotype 2b and 6e NS3 sequences were each synthetically constructed based on a consensus sequence derived from the alignment of 15 genotype 2b and 4 genotype 6e sequences, respectively. All replicon constructs were bicistronic subgenomic replicons similar to those described by Bartenschlager and coworkers, and the replicon cell lines were generated by introducing these constructs into cells of an Huh-7 human hepatoma-derived cell line ([50]). The inhibitory effect of the PIs on HCV replication in replicon cells was determined in Dulbecco's modified Eagle medium containing 5% fetal bovine serum with or without 40% human plasma (Bioreclamation, Westbury, NY). The EC50s were determined using nonlinear regression curve fitting as described previously ([33]).

[3] = tested on: HCV subgenomic stable replicon GT6a; assay: as above; format: cell-based, Hepatitis C virus; conditions: Hepatitis C virus, Huh-7, 0% human plasma, read-out: Mean EC50 ± SD
Source text: as §2

[4] = tested on: HCV subgenomic stable replicon GT3a; assay: microbe, parasite or virus in culture; format: cell-based, Hepatitis C virus; conditions: Hepatitis C virus, Huh-7, 0% human plasma, read-out: Mean EC50 ± SD
Source text: as §1

HCV genotype 3a replicon = assay: Transient replicon assay with engineered substitutions; format: cell-based, Hepatitis C virus; conditions: for EC50: Hepatitis C virus
Procedure: (§3) Mutagenesis was performed using a Change-IT multiple-mutation site-directed mutagenesis kit (USB, Cleveland, OH) or by cloning a synthesized DNA fragment encoding the amino acid substitution(s). The genotype 1a and 1b replicon shuttle vectors used for the introduction of the substitutions of interest in the NS3, NS5A, or NS5B gene for transient-transfection assays have been described previously ([28], [33]). The replicon shuttle vectors used for the introduction of substitutions in NS3 genes from other genotypes were similar to the stable replicon cell line constructs described above, except for the absence of the neo gene. After mutagenesis, the plasmids were linearized and RNA was transcribed and then used to transfect Huh-7 cells. Inhibition of HCV replication by the HCV inhibitors was measured by luciferase assay, as described above. Replication efficiency was calculated as a percentage of wild-type replication, as described previously ([28]).

HCV genotype 5a replicon = assay: as above; format: cell-based, Hepatitis C virus
Procedure: as §3

HCV genotype 4d replicon = assay: as above; format: cell-based, Hepatitis C virus; conditions: for EC50: Hepatitis C virus, 96 h
Procedure: as §3

HCV genotype 2a replicon = assay: as above; format: cell-based, Hepatitis C virus
Procedure: as §3

HCV genotype 1a replicon = assay: as above; format: cell-based, Hepatitis C virus
Procedure: as §3

HCV genotype 6a replicon = assay: as above; format: cell-based, Hepatitis C virus; conditions: for EC50: Hepatitis C virus
Procedure: as §3

HCV genotype 4a replicon = assay: as above; format: cell-based, Hepatitis C virus; conditions: for EC50: Hepatitis C virus
Procedure: as §3

HCV genotype 1b replicon = assay: as above; format: cell-based, Hepatitis C virus
Procedure: as §3

HCV genotype 2b replicon = assay: as above; format: cell-based, Hepatitis C virus; conditions: for EC50: Hepatitis C virus
Procedure: as §3

## Cc1cnc(C(=O)N[C@H]2CCCCC/C=C\[C@@H]3C[C@@]3(C(=O)NS(=O)(=O)C3CC3)NC(=O)[C@@H]3C[C@@H](Oc4nc5ccccc5c5ccccc45)CN3C2=O)cn1 [Paritaprevir]
[1]
  EC50: 107 ± 17 nM
[2]
  EC50: 0.09 ± 0.03 nM
[3]
  EC50: 0.69 ± 0.09 nM
[4]
  EC50: 19 ± 5.2 nM
HCV genotype 3a replicon; 3a NS3 A156G vs wild-type replicon
  Fold change: 57 fold
HCV genotype 3a replicon; 3a NS3 Q168R vs wild-type replicon
  Fold change: 29 fold
HCV genotype 3a replicon; 3a NS3 R155K vs wild-type replicon
  Fold change: 5.2 fold
HCV genotype 3a replicon; read-out: Mean EC50 ± SD, 3a NS3 A156G
  EC50: 1770 nM
HCV genotype 3a replicon; read-out: Mean EC50 ± SD, 3a NS3 Q168R
  EC50: 912 ± 221 nM
HCV genotype 3a replicon; read-out: Mean EC50 ± SD, 3a NS3 R155K
  EC50: 161 ± 20 nM
HCV genotype 3a replicon; read-out: Mean EC50 ± SD, 3a wild type, transient transfection
  EC50: 31 ± 7 nM
HCV genotype 5a replicon; 5a NS3 D168E vs wild-type replicon
  Fold change: 23 fold
HCV genotype 5a replicon; 5a NS3 D168H vs wild-type replicon
  Fold change: 558 fold
HCV genotype 4d replicon; 4d NS3 D168V vs wild-type replicon
  Fold change: 312 fold
HCV genotype 4d replicon; read-out: Mean EC50 ± SD, 4d NS3 D168V
  EC50: 4.7 ± 0.91 nM
HCV genotype 4d replicon; read-out: Mean EC50 ± SD, 4d wild type, transient transfection
  EC50: 0.015 ± 0.001 nM
HCV genotype 2a replicon; 2a NS3 A156T vs wild-type replicon
  Fold change: 1.7 fold
HCV genotype 2a replicon; 2a NS3 A156V vs wild-type replicon
  Fold change: 2.2 fold
HCV genotype 2a replicon; 2a NS3 D168A vs wild-type replicon
  Fold change: 18 fold
HCV genotype 2a replicon; 2a NS3 D168E vs wild-type replicon
  Fold change: 5.3 fold
HCV genotype 2a replicon; 2a NS3 D168V vs wild-type replicon
  Fold change: 13 fold
HCV genotype 1a replicon; 1a NS3 A156T vs wild-type replicon
  Fold change: 17 fold
HCV genotype 1a replicon; 1a NS3 D168A vs wild-type replicon
  Fold change: 50 fold
HCV genotype 1a replicon; 1a NS3 D168E vs wild-type replicon
  Fold change: 14 fold
HCV genotype 1a replicon; 1a NS3 D168V vs wild-type replicon
  Fold change: 96 fold
HCV genotype 1a replicon; 1a NS3 F43L vs wild-type replicon
  Fold change: 20 fold
HCV genotype 1a replicon; 1a NS3 Q80K vs wild-type replicon
  Fold change: 2.8 fold
HCV genotype 1a replicon; 1a NS3 R155K vs wild-type replicon
  Fold change: 37 fold
HCV genotype 1a replicon; 1a NS3 T54S vs wild-type replicon
  Fold change: 0.4 fold
HCV genotype 1a replicon; 1a NS3 V36M vs wild-type replicon
  Fold change: 2.1 fold
HCV genotype 1a replicon; 1a NS3 V55I vs wild-type replicon
  Fold change: 1.0 fold
HCV genotype 1a replicon; 1a NS3 Y56H vs wild-type replicon
  Fold change: 2.9 fold
HCV genotype 6a replicon; 6a NS3 D168A vs wild-type replicon
  Fold change: 1,347 fold
HCV genotype 6a replicon; 6a NS3 D168H vs wild-type replicon
  Fold change: 2,490 fold
HCV genotype 6a replicon; 6a NS3 D168V vs wild-type replicon
  Fold change: 3,336 fold
HCV genotype 6a replicon; read-out: Mean EC50 ± SD, 6a NS3 D168A
  EC50: 162 ± 80 nM
HCV genotype 6a replicon; read-out: Mean EC50 ± SD, 6a NS3 D168H
  EC50: 299 ± 87 nM
HCV genotype 6a replicon; read-out: Mean EC50 ± SD, 6a NS3 D168V
  EC50: 400 ± 139 nM
HCV genotype 6a replicon; read-out: Mean EC50 ± SD, 6a wild type, transient transfection
  EC50: 0.12 ± 0.04 nM
HCV genotype 4a replicon; 4a NS3 A156T vs wild-type replicon
  Fold change: 40 fold
HCV genotype 4a replicon; 4a NS3 A156V vs wild-type replicon
  Fold change: 155 fold
HCV genotype 4a replicon; 4a NS3 D168H vs wild-type replicon
  Fold change: 252 fold
HCV genotype 4a replicon; 4a NS3 D168V vs wild-type replicon
  Fold change: 323 fold
HCV genotype 4a replicon; 4a NS3 R155C vs wild-type replicon
  Fold change: 59 fold
HCV genotype 4a replicon; read-out: Mean EC50 ± SD, 4a NS3 A156T
  EC50: 1.9 ± 0.25 nM
HCV genotype 4a replicon; read-out: Mean EC50 ± SD, 4a NS3 A156V
  EC50: 7.4 ± 1.6 nM
HCV genotype 4a replicon; read-out: Mean EC50 ± SD, 4a NS3 D168H
  EC50: 12 ± 3 nM
HCV genotype 4a replicon; read-out: Mean EC50 ± SD, 4a NS3 D168V
  EC50: 16 ± 1.9 nM
HCV genotype 4a replicon; read-out: Mean EC50 ± SD, 4a NS3 R155C
  EC50: 2.8 ± 0.25 nM
HCV genotype 4a replicon; read-out: Mean EC50 ± SD, 4a wild type, transient transfection
  EC50: 0.048 ± 0.01 nM
HCV genotype 1b replicon; 1b NS3 A156T vs wild-type replicon
  Fold change: 7.4 fold
HCV genotype 1b replicon; 1b NS3 A156V vs wild-type replicon
  Fold change: 21 fold
HCV genotype 1b replicon; 1b NS3 D168A vs wild-type replicon
  Fold change: 27 fold
HCV genotype 1b replicon; 1b NS3 D168E vs wild-type replicon
  Fold change: 4.4 fold
HCV genotype 1b replicon; 1b NS3 D168V vs wild-type replicon
  Fold change: 159 fold
HCV genotype 1b replicon; 1b NS3 R155K vs wild-type replicon
  Fold change: 40 fold
HCV genotype 1b replicon; 1b NS3 T54A vs wild-type replicon
  Fold change: 0.8 fold
HCV genotype 1b replicon; 1b NS3 V55A vs wild-type replicon
  Fold change: 0.6 fold
HCV genotype 1b replicon; 1b NS3 V170A vs wild-type replicon
  Fold change: 0.8 fold
HCV genotype 2b replicon; 2b NS3 A156T vs wild-type replicon
  Fold change: 3.0 fold
HCV genotype 2b replicon; 2b NS3 A156V vs wild-type replicon
  Fold change: 5.0 fold
HCV genotype 2b replicon; 2b NS3 D168A vs wild-type replicon
  Fold change: 11 fold
HCV genotype 2b replicon; 2b NS3 D168E vs wild-type replicon
  Fold change: 2.2 fold
HCV genotype 2b replicon; 2b NS3 D168V vs wild-type replicon
  Fold change: 9.4 fold
HCV genotype 2b replicon; read-out: Mean EC50 ± SD, 2b NS3 A156T
  EC50: 338 ± 86 nM
HCV genotype 2b replicon; read-out: Mean EC50 ± SD, 2b NS3 A156V
  EC50: 573 ± 204 nM
HCV genotype 2b replicon; read-out: Mean EC50 ± SD, 2b NS3 D168A
  EC50: 1310 nM
HCV genotype 2b replicon; read-out: Mean EC50 ± SD, 2b NS3 D168E
  EC50: 256 ± 58 nM
HCV genotype 2b replicon; read-out: Mean EC50 ± SD, 2b NS3 D168V
  EC50: 1070 nM
HCV genotype 2b replicon; read-out: Mean EC50 ± SD, 2b wild type, transient transfection
  EC50: 114 ± 24 nM

Reference: paper PMC5740381 (Antimicrobial Agents and Chemotherapy, 2017)
